Here are results for 17 molecules from patent US20240262822A1, “WDR5 INHIBITORS AND MODULATORS” (Vanderbilt University, priority 2021, published 2024).

Assay [1] has as its system MV4:11 human cancer cell lines. The assay can be described thus: Cellular viability / anti-proliferative activity, CellTiter-Glo, 5 day protocol. The format is cell-based. The settings on record: Homo sapiens, MV4-11, 120 h, MV4:11 cells, 5 day incubation, read-out: GI50 for representative compounds on cellular proliferation of MV4:11 human cancer cell lines. On the procedure: Anti-proliferative activity using MLL-harboring cell lines. MV-4-11 and K562 cells are grown in IMDM media supplemented with 10% FBS and 1% penicillin/streptomycin, Molm-13 cells are cultured in RPMI-1640 media supplemented with 10% FBS and 1% penicillin/streptomycin. Viability assays are performed by dispensing 200 cells at 7200 cells/mL into each well of an opaque 384-well plate and adding compounds at the indicated concentrations in a final volume of 32 μL and a final concentration of DMSO of 0.3% for all samples. A certain range of compound concentrations is made through a series of 2-fold dilutions starting 30 μM at the highest, total 22 dilutions. After a set incubation period, 5 day protocol, the viability of cells in each well is assessed using the CellTiter-Glo assay (Promega), read on a 96 Microplane Luminometer (Cytation 3, BioTek). Serial dilutions of each cell type are performed in all assays to generate standard curves and the final densities of cells are determined within the dynamic range of the instrument. GI50 values are calculated based on XLfit software (IDBS, Guildford, UK) with Sigmoidal Dose-Response Model. Each compound is tested in minimum of two replicates. Data are expressed as mean.

The target in the next assay is T1, WDR5 (Homo sapiens, UniProt P61964).
T1 construct: WDR5-His Tag (A23, residues 24-334) is expressed and purified in our lab; made in house
In words: Time Resolved-Fluorescence Energy Transfer (TR-FRET) competition assay, displacement of 10mer-Thr-FAM probe from His-tagged WDR5. The format is binding. As to conditions: WDR5-His tag 2 nM, 10mer-Thr-FAM 150 nM, 60 minutes at room temperature; read-out: Ki for Exemplified Compounds for Inhibition of WDR5 by TR-FRET assay. An excerpt: Excess 10mer-Thr-FAM probe was utilized with His-tagged WDR5 in conjunction with a commercial anti-His antibody containing a Terbium label. The LanthaScreen™ Elite Tb-anti-HIS Antibody from ThermoFisher Scientific was used for this purpose. This Tb-anti-HIS has an excitation/emission of 340 nm and 490 nm, respectively. The 10mer-Thr-FAM probe when bound to WDR5 will undergo a FRET interaction with the Tb-anti-HIS and emit at 520 nm. […] WDR5-His Tag (A23, residues 24-334) is expressed and purified in our lab in sufficient quantities for screening. 10mer-Thr-FAM peptide is used at 150 nM. WDR5-His tag protein is used at 2 nM. A source plate is prepared using an Echo Liquid Handler, which distributes the compounds to the assay plate (white, flat-bottom; OptiPlate) in a 10-point, 5-fold dilution schemes with a top concentration of 5 μM, in a final volume of 20 μL. A final target (WDR5)/Tb-Ab concentration of 2 nM/1 nM is dispensed from appropriate stock solutions, respectively. The final DMSO concentration in each well of the assay plate is 1% or lower. The plate is covered, shielded from light, and incubated for 60 minutes at room temperature with rocking. 10mer-Thr-FAM and Anti-His terbium antibody fluorescence is then measured on a Biotek Cytation 3 at excitation wavelength of 340 nm, and emission wavelengths of 495 nm and 520 nm. Working buffer conditions contain 1× Phosphate Buffered Saline, 300 mM NaCl, 0.5 mM TCEP, 0.1% CHAPS, at pH 7.2. TR-FRET signal is plotted and IC50 and Ki values are calculated according to the formula of Wang Z. FEBS Lett (1996) 3, 245.
where […] is the concentration of the free inhibitor at 50% inhibition, [L]50 is the concentration of the free labeled ligand at 50% inhibition, [P]0 is the concentration of the free protein at 0% inhibition, Kd represents the dissociation constant of the FITC-MLL or 10mer-Thr-FAM probe for WDR5. Total fluorescence is also measured, to rule out compounds that are inherently fluorescent or able to act as quenchers in the assay. TR-FRET binding assay

Regarding `CCc1cc(OC)c2nncc(N3CCc4c(cc(Cn5ccnc5C)cc4-c4cn(C)nc4C(F)(F)F)C3=O)c2c1` [Example 14, 2-(6-Ethyl-8-methoxycinnolin-4-yl)-7-((2-methyl-1H-imidazol-1-yl)methyl)-5-(1-methyl-3-(trifluoromethyl)-1H-pyrazol-4-yl)-3,4-dihydroisoquinolin-1(2H)-one], the GI50 in assay [1] is less than 20 nM. For the same molecule, the Ki on WDR5 was less than 0.02 nM.
For `COc1cc2nc(C)nc(N3CCc4c(cc(Cn5ccnc5)cc4-c4cn(C)nc4C(F)(F)F)C3=O)c2cc1OC` [Example 15, 7-((1H-Imidazol-1-yl)methyl)-2-(6,7-dimethoxy-2-methylquinazolin-4-yl)-5-(1-methyl-3-(trifluoromethyl)-1H-pyrazol-4-yl)-3,4-dihydroisoquinolin-1(2H)-one] the same measures were less than 20 nM and less than 0.02 nM.
On the same counts, the results for `COc1cc2nccc(N3CCc4c(cc(Cn5ccnc5)cc4-c4cn(C)nc4C(F)(F)F)C3=O)c2cc1OC` [Example 16, 7-((1H-Imidazol-1-yl)methyl)-2-(6,7-dimethoxyquinolin-4-yl)-5-(1-methyl-3-(trifluoromethyl)-1H-pyrazol-4-yl)-3,4-dihydroisoquinolin-1(2H)-one] are less than 20 nM and less than 0.02 nM.
For `COc1ccc2nccc(N3CCc4c(cc(Cn5ccnc5)cc4-c4cn(C)nc4C(F)(F)F)C3=O)c2n1` [Example 17, 7-((1H-Imidazol-1-yl)methyl)-2-(6-methoxy-1,5-naphthyridin-4-yl)-5-(1-methyl-3-(trifluoromethyl)-1H-pyrazol-4-yl)-3,4-dihydroisoquinolin-1(2H)-one] the same measures were 362 nM and 0.03 nM.
Turning to `CCc1cc2c(N3CCc4c(cc(Cn5ccnc5)cc4-c4cn(C)nc4C(F)(F)F)C3=O)ccnc2c(C(=O)NC)n1` [Example 20, 4-(7-((1H-Imidazol-1-yl)methyl)-5-(1-methyl-3-(trifluoromethyl)-1H-pyrazol-4-yl)-1-oxo-3,4-dihydroisoquinolin-2(1H)-yl)-6-ethyl-N-methyl-1,7-naphthyridine-8-carboxamide], the GI50 in assay [1] was 290 nM. At WDR5, the Ki was less than 0.02 nM.
Take `CCc1cnc2c(c1)C(N1CCc3c(cc(Cn4ccnc4)cc3-c3cn(C)nc3C(F)(F)F)C1=O)COC2` (stereo not shown) [Example 21, 7-((1H-Imidazol-1-yl)methyl)-2-(3-ethyl-5,8-dihydro-6H-pyrano[3,4-b]pyridin-5-yl)-5-(1-methyl-3-(trifluoromethyl)-1H-pyrazol-4-yl)-3,4-dihydroisoquinolin-1(2H)-one]: the GI50 in assay [1] was less than 20 nM. At WDR5, the inhibition constant Ki was less than 0.02 nM.
On the same counts, the results for `COc1cc2c(nc1C)CCCC2N1CCc2c(cc(Cn3ccnc3)cc2-c2cn(C)nc2C(F)(F)F)C1=O` (stereo not shown) [Example 22, 7-((1H-Imidazol-1-yl)methyl)-2-(3-methoxy-2-methyl-5,6,7,8-tetrahydroquinolin-5-yl)-5-(1-methyl-3-(trifluoromethyl)-1H-pyrazol-4-yl)-3,4-dihydroisoquinolin-1(2H)-one] are less than 20 nM and less than 0.02 nM.
On the same counts, the results for `COc1cc2c(N3CCc4c(cc(Cn5ccnc5)cc4-c4cn(C)nc4C(F)(F)F)C3=O)ncnc2cc1O` [Example 23, 7-((1H-Imidazol-1-yl)methyl)-2-(7-hydroxy-6-methoxyquinazolin-4-yl)-5-(1-methyl-3-(trifluoromethyl)-1H-pyrazol-4-yl)-3,4-dihydroisoquinolin-1(2H)-one] are 1280 nM and 0.025 nM.
Consider `COc1cc2ncnc(N3CCc4c(cc(Cn5ccnc5)cc4-c4cn(C)nc4C(F)(F)F)C3=O)c2cc1OC` [Example 24, 7-((1H-Imidazol-1-yl)methyl)-2-(6,7-dimethoxyquinazolin-4-yl)-5-(1-methyl-3-(trifluoromethyl)-1H-pyrazol-4-yl)-3,4-dihydroisoquinolin-1(2H)-one], for which the GI50 in assay [1] amounted to 25 nM. Besides, the Ki at WDR5 was less than 0.02 nM.
On the same counts, the results for `COCCOc1cc2ncnc(N3CCc4c(cc(Cn5ccnc5)cc4-c4cn(C)nc4C(F)(F)F)C3=O)c2cc1OC` [Example 25, 7-((1H-Imidazol-1-yl)methyl)-2-(6-methoxy-7-(2-methoxyethoxy)quinazolin-4-yl)-5-(1-methyl-3-(trifluoromethyl)-1H-pyrazol-4-yl)-3,4-dihydroisoquinolin-1(2H)-one] are 310 nM and 0.036 nM.
On the same counts, the results for `COc1cc2c(N3CCc4c(cc(Cn5ccnc5)cc4-c4cn(C)nc4C(F)(F)F)C3=O)ncnc2cc1OCc1ccnn1C` [Example 26, 7-((1H-Imidazol-1-yl)methyl)-2-(6-methoxy-7-((1-methyl-1H-pyrazol-5-yl)methoxy)quinazolin-4-yl)-5-(1-methyl-3-(trifluoromethyl)-1H-pyrazol-4-yl)-3,4-dihydroisoquinolin-1(2H)-one] are 76 nM and less than 0.02 nM.
Take `CCc1cc(OC)c2ncnc(N3CCc4c(cc(Cn5ccnc5)cc4-c4cn(C)nc4C(F)(F)F)C3=O)c2c1` [Example 27, 7-((1H-imidazol-1-yl)methyl)-2-(6-ethyl-8-methoxyquinazolin-4-yl)-5-(1-methyl-3-(trifluoromethyl)-1H-pyrazol-4-yl)-3,4-dihydroisoquinolin-1(2H)-one]: the GI50 in assay [1] is less than 20 nM. Also, the Ki at WDR5 was less than 0.02 nM.
On the same counts, the results for `CCOc1cc2c(N3CCc4c(cc(Cn5ccnc5)cc4-c4cn(C)nc4C(F)(F)F)C3=O)ncnc2cc1OC` [Example 28, 7-((1H-Imidazol-1-yl)methyl)-2-(6-ethoxy-7-methoxyquinazolin-4-yl)-5-(1-methyl-3-(trifluoromethyl)-1H-pyrazol-4-yl)-3,4-dihydroisoquinolin-1(2H)-one] are 64 nM and less than 0.02 nM.
On the same counts, the results for `CCOc1cc2ncnc(N3CCc4c(cc(Cn5ccnc5)cc4-c4cn(C)nc4C(F)(F)F)C3=O)c2cc1OC` [Example 29, 7-((1H-Imidazol-1-yl)methyl)-2-(7-ethoxy-6-methoxyquinazolin-4-yl)-5-(1-methyl-3-(trifluoromethyl)-1H-pyrazol-4-yl)-3,4-dihydroisoquinolin-1(2H)-one] are 164 nM and 0.032 nM.
On the same counts, the results for `CCOc1cc2ncnc(N3CCc4c(cc(Cn5ccnc5)cc4-c4cn(C)nc4C(F)(F)F)C3=O)c2cc1OCC` [Example 30, 7-((1H-Imidazol-1-yl)methyl)-2-(6,7-diethoxyquinazolin-4-yl)-5-(1-methyl-3-(trifluoromethyl)-1H-pyrazol-4-yl)-3,4-dihydroisoquinolin-1(2H)-one] are 47 nM and less than 0.02 nM.
Turning to `COc1cc2cnnc(N3CCc4c(cc(Cn5ccnc5)cc4-c4cn(C)nc4C(F)(F)F)C3=O)c2cc1OC` [Example 31, 7-((1H-Imidazol-1-yl)methyl)-2-(6,7-dimethoxyphthalazin-1-yl)-5-(1-methyl-3-(trifluoromethyl)-1H-pyrazol-4-yl)-3,4-dihydroisoquinolin-1(2H)-one], the GI50 in assay [1] is less than 20 nM. For the same molecule, the Ki at WDR5 is less than 0.02 nM.
As for `COc1cc2c(N3CCc4c(cc(Cn5ccnc5)cc4-c4cn(C)nc4C(F)(F)F)C3=O)ncnc2cc1F` [Example 32, 7-((1H-Imidazol-1-yl)methyl)-2-(7-fluoro-6-methoxyquinazolin-4-yl)-5-(l-methyl-3-(trifluoromethyl)-1H-pyrazol-4-yl)-3,4-dihydroisoquinolin-1(2H)-one], the GI50 in assay [1] is less than 20 nM. In addition, the Ki at WDR5 is less than 0.02 nM.
